Experiments:
Test in all cases: Test D controlled growth environment herbicide test, pre- and postemergence
Assay type in all cases: in vivo
[1] = tested on: oat, wild (wild oat, Avena fatua)
In short: (§1)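 Rating is visual, 0–100 scale (100 = complete control), made against untreated plants 14–21 d after treatment in controlled growth conditions. Postemergence sprays went onto 1- to 4-leaf plants in peat medium; preemergence sprays onto silt loam after sowing; formulation included a surfactant.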

[2] = tested on: oilseed rape (Brassica napus)
In short: as §1

[3] = tested on: pigweed (Amaranthus retroflexus)
In short: as §1

[4] = tested on: buckwheat, wild (wild buckwheat, Polygonum convolvulus)
In short: as §1

[5] = tested on: chickweed (common chickweed, Stellaria media)
In short: as §1

[6] = tested on: wheat, winter (winter wheat, Triticum aestivum)
In short: as §1

[7] = tested on: barley, spring (spring barley, Hordeum vulgare)
In short: as §1

[8] = tested on: wheat, spring (spring wheat, Triticum aestivum)
In short: as §1

[9] = tested on: field violet (Viola arvensis)
In short: as §1

[10] = tested on: canarygrass (Phalaris minor)
In short: as §1

[11] = tested on: Russian thistle (Salsola kali)
In short: as §1

[12] = tested on: galium (catchweed bedstraw, Galium aparine)
In short: as §1

kochia (Kochia scoparia) = tested on: kochia (Kochia scoparia)
In short: as §1

[13] = Postemergence, 31 g ai/ha, scale 0 to 100 (0 no effect, 100 complete control)
[14] = Postemergence, 125 g ai/ha, visual rating on scale 0 (no effect) to 100 (complete control), 14 to 21 d
[15] = Postemergence, 250 g ai/ha, scale 0 to 100 (0 no effect, 100 complete control)
[16] = Preemergence, 62 g ai/ha, scale 0 to 100 (0 no effect, 100 complete control)
[17] = Preemergence, 125 g ai/ha, scale 0 to 100 (0 no effect, 100 complete control)
[18] = Preemergence, 250 g ai/ha, scale 0 to 100, 0 no effect, 100 complete control
[19] = postemergence, 62 g ai/ha, scale 0 to 100, 0 no effect, 100 complete control

Q: Which results are given for Cc1nn(C)c(=O)c(-c2ccc(F)c3ccccc23)c1O [Compound 41]?
A: Oat, Wild plant response rating [1, 13]: 70; Plant response rating, Oat, Wild [1, 14]: 85; Plant response rating, Oat, Wild [1, 15]: 85; Plant response rating (scale of 0 to 100), Oat, Wild ([1]; Preemergence, 31 g ai/ha): 85; Plant response rating, Oat, Wild [1, 16]: 90; Plant response rating, Oat, Wild [1, 17]: 90; Plant response rating, Oat, Wild [1, 18]: 95; Plant response rating, Oat, Wild [1, 19]: 80; Oilseed Rape plant response rating [2, 13]: 0; Plant response rating, Oilseed Rape [2, 14]: 25; Plant response rating, Oilseed Rape [2, 15]: 55; Plant response rating (scale of 0 to 100), Oilseed Rape ([2]; Preemergence, 31 g ai/ha): 0; Plant response rating, Oilseed Rape [2, 16]: 5; Plant response rating, Oilseed Rape [2, 17]: 25; Plant response rating, Oilseed Rape [2, 18]: 15; Plant response rating, Oilseed Rape [2, 19]: 5; Pigweed plant response rating [3, 13]: 75; Plant response rating, Pigweed [3, 14]: 80; Plant response rating, Pigweed [3, 15]: 85; Plant response rating (scale of 0 to 100), Pigweed ([3]; Preemergence, 31 g ai/ha): 25; Plant response rating, Pigweed [3, 16]: 75; Plant response rating, Pigweed [3, 17]: 100; Plant response rating, Pigweed [3, 18]: 100; Plant response rating, Pigweed [3, 19]: 80; Buckwheat, Wild plant response rating [4, 13]: 80; Plant response rating, Buckwheat, Wild [4, 14]: 95; Plant response rating, Buckwheat, Wild [4, 15]: 100; Plant response rating (scale of 0 to 100), Buckwheat, Wild ([4]; Preemergence, 31 g ai/ha): 35; Plant response rating, Buckwheat, Wild [4, 16]: 55; Plant response rating, Buckwheat, Wild [4, 17]: 65; Plant response rating, Buckwheat, Wild [4, 18]: 75; Plant response rating, Buckwheat, Wild [4, 19]: 90; Chickweed plant response rating [5, 13]: 98; Plant response rating, Chickweed [5, 14]: 95; Plant response rating, Chickweed [5, 15]: 100; Plant response rating (scale of 0 to 100), Chickweed ([5]; Preemergence, 31 g ai/ha): 90; Plant response rating, Chickweed [5, 16]: 95; Plant response rating, Chickweed [5, 17]: 95; Plant response rating, Chickweed [5, 18]: 95; Plant response rating, Chickweed [5, 19]: 98; Wheat, Winter plant response rating [6, 13]: 10; Plant response rating, Wheat, Winter [6, 14]: 25; Plant response rating, Wheat, Winter [6, 15]: 35; Plant response rating (scale of 0 to 100), Wheat, Winter ([6]; Preemergence, 31 g ai/ha): 10; Plant response rating, Wheat, Winter [6, 16]: 20; Plant response rating, Wheat, Winter [6, 17]: 45; Plant response rating, Wheat, Winter [6, 18]: 75; Plant response rating, Wheat, Winter [6, 19]: 20; Plant response rating, Barley, Spring [7, 13]: 0; Plant response rating, Barley, Spring [7, 14]: 10; Plant response rating, Barley, Spring [7, 15]: 20; Plant response rating (scale of 0 to 100), Barley, Spring ([7]; Preemergence, 31 g ai/ha): 0; Plant response rating, Barley, Spring [7, 16]: 0; Plant response rating, Barley, Spring [7, 17]: 30; Barley, Spring plant response rating [7, 18]: 60; Plant response rating, Barley, Spring [7, 19]: 5; Wheat, Spring plant response rating [8, 13]: 15; Plant response rating, Wheat, Spring [8, 14]: 30; Plant response rating, Wheat, Spring [8, 15]: 40; Plant response rating (scale of 0 to 100), Wheat, Spring ([8]; Preemergence, 31 g ai/ha): 40; Plant response rating, Wheat, Spring [8, 16]: 55; Plant response rating, Wheat, Spring [8, 17]: 70; Plant response rating, Wheat, Spring [8, 18]: 85; Plant response rating, Wheat, Spring [8, 19]: 20; Field Violet plant response rating [9, 13]: 100; Plant response rating, Field Violet [9, 14]: 90; Plant response rating, Field Violet [9, 15]: 100; Plant response rating (scale of 0 to 100), Field Violet ([9]; Preemergence, 31 g ai/ha): 95; Plant response rating, Field Violet [9, 16]: 90; Plant response rating, Field Violet [9, 17]: 100; Plant response rating, Field Violet [9, 18]: 100; Plant response rating, Field Violet [9, 19]: 90; Canarygrass plant response rating [10, 13]: 55; Plant response rating, Canarygrass [10, 14]: 80; Plant response rating, Canarygrass [10, 15]: 80; Plant response rating (scale of 0 to 100), Canarygrass ([10]; Preemergence, 31 g ai/ha): 90; Plant response rating, Canarygrass [10, 16]: 90; Plant response rating, Canarygrass [10, 17]: 90; Plant response rating, Canarygrass [10, 18]: 95; Plant response rating, Canarygrass [10, 19]: 70; Russian Thistle plant response rating [11, 13]: 70; Plant response rating, Russian Thistle [11, 14]: 75; Plant response rating, Russian Thistle [11, 15]: 75; Plant response rating (scale of 0 to 100), Russian Thistle ([11]; Preemergence, 31 g ai/ha): 25; Plant response rating, Russian Thistle [11, 16]: 20; Plant response rating, Russian Thistle [11, 17]: 40; Plant response rating, Russian Thistle [11, 18]: 70; Plant response rating, Russian Thistle [11, 19]: 70; Galium plant response rating [12, 13]: 100; Plant response rating, Galium [12, 14]: 100; Plant response rating, Galium [12, 15]: 100; Plant response rating (scale of 0 to 100), Galium ([12]; Preemergence, 31 g ai/ha): 75; Plant response rating, Galium [12, 16]: 85; Plant response rating, Galium [12, 17]: 95; Plant response rating, Galium [12, 18]: 100; Plant response rating, Galium [12, 19]: 100; Kochia plant response rating (kochia (Kochia scoparia); [13]): 85; Plant response rating, Kochia (kochia (Kochia scoparia); [14]): 85; Plant response rating, Kochia (kochia (Kochia scoparia); [15]): 100; Plant response rating (scale of 0 to 100), Kochia (kochia (Kochia scoparia); Preemergence, 31 g ai/ha): 80; Plant response rating, Kochia (kochia (Kochia scoparia); [16]): 75; Plant response rating, Kochia (kochia (Kochia scoparia); [17]): 80; Plant response rating, Kochia (kochia (Kochia scoparia); [18]): 100; Plant response rating, Kochia (kochia (Kochia scoparia); [19]): 95
